Results: patent US20080262228A1, “Metabolites of 5-fluoro-8- quinoline and methods of preparation and uses thereof” (Wyeth, priority 2006, published 2008)
Several values for one entry are separate records, joined by “and”; a condition that tells them apart may be missing. Identical values can stand only once.

Assay: In vivo metabolism and excretion of [14C]COMPOUND I in male beagle dogs, single oral 3 mg/kg dose
Design: species or system dog
Conditions: for Cumulative Percent Excretion of Radioactivity in Feces (includes cage rinse): mean ± SD (n = 4)
Description: Dose preparation, animal dosing, and specimen collection were performed at Wyeth Research, Collegeville, Pa. The vehicle contained 2% (w/v) polysorbate 80, NF and 0.5% (w/v) methylcellulose (4000 cps) in water. [^14C]COMPOUND I trisuccinate salt (50.25 mg) and non-labeled COMPOUND I trisuccinate salt (331.9 mg) were suspended in 72 mL of the vehicle by grinding with a mortar and a pestle. The target [^14C]COMPOUND I concentration was approximately 3 mg/mL as free base and 48 μCi/mL with a target specific activity of 16 μCi/mg. Three pre- and post-dose aliquots (100 μL) were taken for the determination of radiochemical purity, drug and radioactivity concentrations and specific activity (see below).
Four male beagle dogs, weighing from 9.4 to 11.5 kg at the time of dosing, were from an in-house colony. Non-fasted dogs were given a single 3 mg/kg (approximately 48 μCi/kg) dose of [^14C]COMPOUND I at a volume of 1 mL/kg via intragastric gavage. Animals were provided Purina dog chow and water ad libitum, and were housed individually in metabolic cages.
Blood samples were collected from the jugular vein at 1, 4, 8, 24, 48, 72 and 120 hr after dose administration into tubes containing potassium EDTA as the anticoagulant and then placed on ice. Aliquots of 200 μL were removed and plasma was harvested immediately from the remaining blood by centrifugation at 4° C. Urine samples were collected into tubes on dry ice from 0-24 and 24-48 hr, and then at ambient temperature at 24 hr intervals for 7 days post-dose. Fecal samples were collected at 24 hr intervals for 7 days post-dose at room temperature. Cage rinses were collected daily by rinsing each cage with approximately 500 mL of 30% ethanol in water. The dose aliquots and biological specimens were stored at approximately −70° C. until analysis.
Triplicate aliquots of diluted dose (20 μL), dose fractions (10 μL) and plasma (50 μL), urine (200 μL) and cage wash (500 μL) from individual dogs were analyzed for radioactivity content. The samples were assayed in a Tri-Carb Model 3100TR liquid scintillation counter (Perkin Elmer) using 5 mL of Ultima Gold scintillation cocktail.
Fecal samples from individual dogs were weighed and homogenized in water at a volume-to-weight ratio of about 4:1 with a Silverson sealed-unit homogenizer at ambient temperature. Triplicate aliquots of whole blood (50 μL) and fecal homogenates (approximately 0.2 g) were placed into Combusto-cones with Combusto-pads and allowed to dry overnight. Samples were combusted with a model 307 Tri-Carb Sample Oxidizer, equipped with an Oximate-80 Robotic Automatic Sampler (Perkin Elmer). The liberated ^14CO2 was trapped with Carbo-Sorb® E carbon dioxide absorber, mixed with PermaFluor® E+liquid scintillation cocktail, and counted in a Tri-Carb Model 3100 TR/LL liquid scintillation counter.
Plasma samples were pooled by mixing equal volumes from four animals at each time point (1, 4, 8 and 24 hr). Aliquots of 2.0 mL of pooled plasma were mixed with 2.0 mL of acetonitrile, placed on ice for about 10 min, and then centrifuged at 4° C. The supernatant was transferred to a clean tube. The protein pellets were extracted two more times with 2.0 mL of acetonitrile. The supernatants from precipitation and extraction of each sample were pooled, mixed, and evaporated at 22° C. under nitrogen in a TurboVap LV evaporator (Caliper Life Sciences, Hopkinton, Mass.) to about 0.8 mL. The concentrated extract was centrifuged, the supernatant volume measured and the extraction efficiency was determined by analyzing duplicate 10 μL aliquots for radioactivity concentrations. For metabolite profiling, an aliquot of the supernatant (200 μL) was injected onto the HPLC column as described hereinbelow, and fractions were collected at 20 second intervals into 96-well Lumaplates (Perkin Elmer).

[1] = 1 hr, 3 mg/kg oral, individual dogs, 3 mg/kg
[2] = 4 hr, 3 mg/kg oral, individual dogs, 3 mg/kg
[3] = 8 hr, 3 mg/kg oral, individual dogs, 3 mg/kg
[4] = 24 hr, 3 mg/kg oral, individual dogs, 3 mg/kg
[5] = 48 hr, 3 mg/kg oral, individual dogs, 3 mg/kg
[6] = 72 hr, 3 mg/kg oral, individual dogs, 3 mg/kg
[7] = 120 hr, 3 mg/kg oral, individual dogs, 3 mg/kg
[8] = 120 hr, 3 mg/kg oral, mean ± SD

- Recovery of Radioactivity in Cage Rinse (Percent of Dose) (0-24 hr, 3 mg/kg oral, individual dogs, 3 mg/kg): 0.18% and 1.64% and 1.74% and 0.78%
- Recovery of Radioactivity in Cage Rinse (Percent of Dose) (0-24 hr, 3 mg/kg oral, mean ± SD): 1.09 ± 0.74%
- Recovery of Radioactivity in Cage Rinse (Cumulative Percent of Dose) (0-48 hr, 3 mg/kg oral, individual dogs, 3 mg/kg): 0.46% and 2.57% and 2.20% and 1.75%
- Recovery of Radioactivity in Cage Rinse (Cumulative Percent of Dose) (0-48 hr, 3 mg/kg oral, mean ± SD): 1.75 ± 0.92%
- Cumulative Percent Excretion of Radioactivity in Feces (includes cage rinse) (0-48 hr, 3 mg/kg oral, 3 mg/kg): 61.2% and 61.2 ± 14.1%
- Recovery of Radioactivity in Cage Rinse (Cumulative Percent of Dose) (0-72 hr, 3 mg/kg oral, individual dogs, 3 mg/kg): 0.65% and 3.00% and 2.57% and 1.97%
- Recovery of Radioactivity in Cage Rinse (Cumulative Percent of Dose) (0-72 hr, 3 mg/kg oral, mean ± SD): 2.05 ± 1.02%
- Recovery of Radioactivity in Cage Rinse (Cumulative Percent of Dose) (0-96 hr, 3 mg/kg oral, individual dogs, 3 mg/kg): 0.72% and 3.27% and 2.66% and 2.05%
- Recovery of Radioactivity in Cage Rinse (Cumulative Percent of Dose) (0-96 hr, 3 mg/kg oral, mean ± SD): 2.18 ± 1.09%
- Recovery of Radioactivity in Cage Rinse (Cumulative Percent of Dose) (0-120 hr, 3 mg/kg oral, individual dogs, 3 mg/kg): 0.75% and 3.39% and 2.73% and 2.12%
- Recovery of Radioactivity in Cage Rinse (Cumulative Percent of Dose) (0-120 hr, 3 mg/kg oral, mean ± SD): 2.25 ± 1.13%
- Recovery of Radioactivity in Cage Rinse (Cumulative Percent of Dose) (0-144 hr, 3 mg/kg oral, individual dogs, 3 mg/kg): 0.79% and 3.49% and 2.77% and 2.17%
- Recovery of Radioactivity in Cage Rinse (Cumulative Percent of Dose) (0-144 hr, 3 mg/kg oral, mean ± SD): 2.31 ± 1.15%
- Recovery of Radioactivity in Cage Rinse (Cumulative Percent of Dose) (0-168 hr, 3 mg/kg oral, individual dogs, 3 mg/kg): 0.84% and 3.58% and 2.83% and 2.20%
- Recovery of Radioactivity in Cage Rinse (Cumulative Percent of Dose) (0-168 hr, 3 mg/kg oral, mean ± SD): 2.36 ± 1.16%
- Cumulative Percent Excretion of Radioactivity in Feces (includes cage rinse) (0-168 hr, 3 mg/kg oral, 3 mg/kg): 72.8% and 72.8 ± 3.28%
- dose excreted in urine (3 mg/kg oral): less than 7%
- Recovery of Radioactivity in Cage Rinse (Percent of Dose) (24-48 hr, 3 mg/kg oral, individual dogs, 3 mg/kg): 0.28% and 0.93% and 0.46% and 0.97%
- Recovery of Radioactivity in Cage Rinse (Percent of Dose) (24-48 hr, 3 mg/kg oral, mean ± SD): 0.66 ± 0.34%
- Recovery of Radioactivity in Cage Rinse (Percent of Dose) (48-72 hr, 3 mg/kg oral, individual dogs, 3 mg/kg): 0.19% and 0.43% and 0.37% and 0.22%
- Recovery of Radioactivity in Cage Rinse (Percent of Dose) (48-72 hr, 3 mg/kg oral, mean ± SD): 0.30 ± 0.12%
- Recovery of Radioactivity in Cage Rinse (Percent of Dose) (72-96 hr, 3 mg/kg oral, individual dogs, 3 mg/kg): 0.07% and 0.27% and 0.09% and 0.08%
- Recovery of Radioactivity in Cage Rinse (Percent of Dose) (72-96 hr, 3 mg/kg oral, mean ± SD): 0.13 ± 0.10%
- Recovery of Radioactivity in Cage Rinse (Percent of Dose) (96-120 hr, 3 mg/kg oral, individual dogs, 3 mg/kg): 0.03% and 0.12% and 0.07% (2×)
- Recovery of Radioactivity in Cage Rinse (Percent of Dose) (96-120 hr, 3 mg/kg oral, mean ± SD): 0.07 ± 0.04%
- Recovery of Radioactivity in Cage Rinse (Percent of Dose) (120-144 hr, 3 mg/kg oral, individual dogs, 3 mg/kg): 0.04% (2×) and 0.10% and 0.05%
- Recovery of Radioactivity in Cage Rinse (Percent of Dose) (120-144 hr, 3 mg/kg oral, mean ± SD): 0.06 ± 0.03%
- Recovery of Radioactivity in Cage Rinse (Percent of Dose) (144-168 hr, 3 mg/kg oral, individual dogs, 3 mg/kg): 0.05% and 0.09% and 0.06% and 0.03%
- Recovery of Radioactivity in Cage Rinse (Percent of Dose) (144-168 hr, 3 mg/kg oral, mean ± SD): 0.06 ± 0.03%
- Concentration of Total Radioactivity in Whole Blood (1 hr, 3 mg/kg oral, mean ± SD): 333 ± 66.3 ng equivalents/mL
- Concentration of Total Radioactivity in Plasma (1 hr, 3 mg/kg oral, mean ± SD, 3 mg/kg): 424±66.1 ng equivalents/mL
- Concentration of Total Radioactivity in Plasma (4 hr, 3 mg/kg oral, mean ± SD): 225 ± 72.2 ng equivalents/mL
- Concentration of Total Radioactivity in Whole Blood (4 hr, 3 mg/kg oral, mean ± SD): 203 ± 59.0 ng equivalents/mL
- Concentration of Total Radioactivity in Plasma (8 hr, 3 mg/kg oral, mean ± SD): 132 ± 29.2 ng equivalents/mL
- Concentration of Total Radioactivity in Whole Blood (8 hr, 3 mg/kg oral, mean ± SD): 128 ± 27.2 ng equivalents/mL
- Concentration of Total Radioactivity in Whole Blood (24 hr, 3 mg/kg oral, mean ± SD): 71.5 ± 24.8 ng equivalents/mL
- Concentration of Total Radioactivity in Plasma (24 hr, 3 mg/kg oral, mean ± SD, 3 mg/kg): 90.8±45.9 ng equivalents/mL
- Concentration of Total Radioactivity in Plasma (48 hr, 3 mg/kg oral, mean ± SD): 38.2 ± 15.1 ng equivalents/mL
- Concentration of Total Radioactivity in Whole Blood (48 hr, 3 mg/kg oral, mean ± SD): 33.9 ± 9.44 ng equivalents/mL
- Concentration of Total Radioactivity in Plasma (72 hr, 3 mg/kg oral, mean ± SD): 37.9 ± 25.6 ng equivalents/mL
- Concentration of Total Radioactivity in Whole Blood (72 hr, 3 mg/kg oral, mean ± SD): 24.1 ± 6.14 ng equivalents/mL
- Concentration of Total Radioactivity in Plasma [8]: 45.7 ± 0.78 ng equivalents/mL
- Concentration of Total Radioactivity in Whole Blood [8]: 19.3 ± 3.26 ng equivalents/mL
- administered dose excreted after the completion of the study (estimated from radioactivity in urine collected for several additional weeks): about 5%
Structure (SMILES): COc1cc(N2CCN(C3CCN(c4ccc(F)c5cccnc45)CC3)CC2)c2ncccc2c1 [[^14C]COMPOUND I, [piperazine-^14C(U)]-5-fluoro-8-(4-(4-(6-methoxyquinolin-8-yl)piperazin-1-yl)piperidin-1-yl)quinoline trisuccinate]
- Concentration of Total Radioactivity in Plasma [1]: 336 ng equivalents/mL and 426 ng equivalents/mL and 496 ng equivalents/mL and 437 ng equivalents/mL
- Concentration of Total Radioactivity in Whole Blood [1]: 270 ng equivalents/mL and 284 ng equivalents/mL and 404 ng equivalents/mL and 375 ng equivalents/mL
- Concentration of Total Radioactivity in Plasma [2]: 166 ng equivalents/mL and 228 ng equivalents/mL and 326 ng equivalents/mL and 181 ng equivalents/mL
- Concentration of Total Radioactivity in Whole Blood [2]: 138 ng equivalents/mL and 201 ng equivalents/mL and 191 ng equivalents/mL and 281 ng equivalents/mL
- Concentration of Total Radioactivity in Plasma [3]: 102 ng equivalents/mL and 135 ng equivalents/mL and 171 ng equivalents/mL and 121 ng equivalents/mL
- Concentration of Total Radioactivity in Whole Blood [3]: 93.5 ng equivalents/mL and 131 ng equivalents/mL and 160 ng equivalents/mL and 126 ng equivalents/mL
- Concentration of Total Radioactivity in Plasma [4]: 49.1 ng equivalents/mL and 69.3 ng equivalents/mL and 155 ng equivalents/mL and 89.7 ng equivalents/mL
- Concentration of Total Radioactivity in Whole Blood [4]: 41.2 ng equivalents/mL and 63.3 ng equivalents/mL and 98.5 ng equivalents/mL and 82.9 ng equivalents/mL
- Concentration of Total Radioactivity in Plasma [5]: 25.5 ng equivalents/mL and 28.2 ng equivalents/mL and 58.5 ng equivalents/mL and 40.7 ng equivalents/mL
- Concentration of Total Radioactivity in Whole Blood [5]: 22.2 ng equivalents/mL and 30.2 ng equivalents/mL and 40.8 ng equivalents/mL and 42.2 ng equivalents/mL
- Concentration of Total Radioactivity in Plasma [6]: 17.6 ng equivalents/mL and 21.4 ng equivalents/mL and 73.6 ng equivalents/mL and 39.0 ng equivalents/mL
- Concentration of Total Radioactivity in Whole Blood [6]: 16.8 ng equivalents/mL and 22.6 ng equivalents/mL and 25.2 ng equivalents/mL and 31.6 ng equivalents/mL
- Concentration of Total Radioactivity in Plasma [7]: 45.1 ng equivalents/mL (2×) and 46.0 ng equivalents/mL and 46.7 ng equivalents/mL
- Concentration of Total Radioactivity in Whole Blood [7]: 16.6 ng equivalents/mL and 18.4 ng equivalents/mL and 18.0 ng equivalents/mL and 24.0 ng equivalents/mL
